Measured values taken from ChEMBL document CHEMBL1240359, “Micafungin concentrations from brain tissue and pancreatic pseudocyst fluid” (Antimicrob Agents Chemother, 2010).
Activity calls are given as the source filed them. The rule behind the calls is not given here. Starred links: 1 amine or outer side, 2 acyl side, 3 side chain; linkers in the order of their positions; H or OH if unused. Positions of bridges follow the written chain, without caps; N, C: chain ends. Non-standard residues stand in square brackets, D forms with d. Residues, ends and D or L forms follow the SMILES beside them. *: point of attachment. hTyr(3S-OH,4S-OH,3'-OSO3H) = N[C@H](C(=O)O)[C@H](O)[C@@H](O)c1ccc(O)c(OS(=O)(=O)O)c1; Orn(4R-OH,5R-OH) = O=C([C@H](C[C@@H](O)[C@@H](O)N[*:3])N[*:1])[*:2]; Pro(3S-OH,4S-Me) = C[C@H]1CN[C@H](C(=O)O)[C@H]1O; X1 = CCCCCOc1ccc(-c2cc(-c3ccc(C(=O)*)cc3)no2)cc1; Gln(3R-OH) = NC(=O)C[C@@H](O)[C@H](N)C(=O)O; Hyp = O=C(O)[C@@H]1C[C@@H](O)CN1

Experiments:
[1] = Plasma concentration in patient with invasive candidiasis measured 23 hrs post last dose by HPLC; format: ADME, organism-based; details: human
[2] = Drug level in rabbit kidney at 0.5 to 2 mg/kg/day, iv for 8 days measured 30 mins after last dose; format: ADME, organism-based, Oryctolagus cuniculus; design: route intravenous; details: read-out: Drug uptake
[3] = Drug level in pancreatic pseudocyst fluid of patient with invasive candidiasis measured 24 hrs post last dose by HPLC; format: ADME; details: human, read-out: Drug uptake
[4] = Drug level in rabbit brain at 1 mg/kg/day, iv for 8 days measured 30 mins after last dose; format: ADME, organism-based, Oryctolagus cuniculus; design: route intravenous; details: read-out: Drug uptake
Candida albicans = assay: Antimicrobial activity against Candida albicans infected in neutropenic rabbit model of disseminated candidiasis assessed as reduction in brain microbial burden at 0.25 to 2 mg/kg/day for 10 days; format: functional, organism-based
[5] = Drug level in brain of patient with invasive candidiasis measured 23 hrs post last dose by HPLC; format: ADME, tissue-based; details: human, read-out: Drug uptake
[6] = Drug level in rabbit lung at 0.5 to 2 mg/kg/day, iv for 8 days measured 30 mins after last dose; format: ADME, organism-based, Oryctolagus cuniculus; design: route intravenous; details: read-out: Drug uptake
[7] = Drug level in rabbit brain at 0.5 mg/kg/day, iv for 8 days measured 30 mins after last dose; format: ADME, organism-based, Oryctolagus cuniculus; design: route intravenous; details: read-out: Drug uptake
[8] = Drug level in rabbit brain at 2 mg/kg/day, iv for 8 days measured 30 mins after last dose; format: ADME, organism-based, Oryctolagus cuniculus; design: route intravenous; details: read-out: Drug uptake

SMILES: CCCCCOc1ccc(-c2cc(-c3ccc(C(=O)N[C@H]4C[C@@H](O)[C@@H](O)NC(=O)[C@@H]5[C@@H](O)[C@@H](C)CN5C(=O)[C@H]([C@H](O)CC(N)=O)NC(=O)[C@H]([C@H](O)[C@@H](O)c5ccc(O)c(OS(=O)(=O)O)c5)NC(=O)[C@@H]5C[C@@H](O)CN5C(=O)[C@H]([C@@H](C)O)NC4=O)cc3)no2)cc1 [MICAFUNGIN] (X1-[Orn(4R-OH,5R-OH)]T[Hyp][hTyr(3S-OH,4S-OH,3'-OSO3H)][Gln(3R-OH)][Pro(3S-OH,4S-Me)]; lactam 1-C)
- concentration at 23 h [1]: 1.58 µg/mL
- concentration at 0.5 h [2]: 1400 ng/g
- concentration at 24 h [3]: 0.38 µg/mL
- concentration at 0.5 h [4]: 100 ng/g
- inhibition (Candida albicans): Active
- concentration at 23 h [5]: 0.28 µg/mL
- concentration at 0.5 h [6]: 2260 ng/g
- concentration at 0.5 h [7]: 80 ng/g
- concentration at 0.5 h [8]: 180 ng/g
